Assay results published in patent US7118895B2, “Process for producing aglycon by using diglycosidase and flavor-improved food containing the aglycon and converting agent to be used in the process” (Amano Enzyme Inc., priority 2000, dated 2006).

Test system: Crude diglycosidase
Test: Examination of temperature in the conversion into isoflavone aglycons by diglycosidase using soybean materials
Format: biochemical, Penicillium multicolor IAM7153
Set-up: Decomposition efficiency of glycitin family in roasted soy flour / Decomposition efficiency of daidzin family in roasted soy flour / Decomposition efficiency of genistin family in soymilk / Decomposition efficiency of daidzin family in soymilk / Decomposition efficiency of glycitin family in defatted soybean / Decomposition efficiency of daidzin family in defatted soybean: concentration or dose not given beside the values
Method in brief: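 Soybean materials (50 mg) suspended in 20 mM acetate buffer pH 4.0 reacted with crude diglycosidase diluted to 1.88 AU/mL at 80, 65, 55, 45, 37 or 30° C. Reactions stopped with ethanol at 0, 1, 3 and 6 h; isoflavone glycosides and aglycons in supernatant detected by HPLC.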

[1] = 30 °C, heat treatment of enzyme: no, 0 h
[2] = 30 °C, heat treatment of enzyme: no, 1 h
[3] = 30 °C, heat treatment of enzyme: no, 3 h
[4] = 30 °C, heat treatment of enzyme: no, 6 h
[5] = 30 °C, heat treatment of enzyme: yes, 6 h
[6] = 45 °C, heat treatment of enzyme: no, 0 h
[7] = 45 °C, heat treatment of enzyme: no, 1 h
[8] = 45 °C, heat treatment of enzyme: no, 3 h
[9] = 45 °C, heat treatment of enzyme: no, 6 h
[10] = 45 °C, heat treatment of enzyme: yes, 6 h
[11] = 55 °C, heat treatment of enzyme: no, 0 h
[12] = 55 °C, heat treatment of enzyme: no, 1 h
[13] = 55 °C, heat treatment of enzyme: no, 3 h
[14] = 55 °C, heat treatment of enzyme: no, 6 h
[15] = 55 °C, heat treatment of enzyme: yes, 6 h
[16] = 65 °C, heat treatment of enzyme: no, 0 h
[17] = 65 °C, heat treatment of enzyme: no, 1 h
[18] = 65 °C, heat treatment of enzyme: no, 3 h
[19] = 65 °C, heat treatment of enzyme: no, 6 h
[20] = 65 °C, heat treatment of enzyme: yes, 6 h
[21] = 80 °C, heat treatment of enzyme: no, 0 h
[22] = 80 °C, heat treatment of enzyme: no, 1 h
[23] = 80 °C, heat treatment of enzyme: no, 3 h
[24] = 80 °C, heat treatment of enzyme: no, 6 h
[25] = 80 °C, heat treatment of enzyme: yes, 6 h

Decomposition efficiency of glycitin family in defatted soybean (30° C., heat treatment of enzyme no, reaction time 0 h): 61.3% | Decomposition efficiency of glycitin family in defatted soybean (30° C., heat treatment of enzyme no, reaction time 1 h): 48.3% | Decomposition efficiency of glycitin family in defatted soybean (30° C., heat treatment of enzyme no, reaction time 3 h): 44.6% | Decomposition efficiency of glycitin family in defatted soybean (30° C., heat treatment of enzyme no, reaction time 6 h): 45.6% | Decomposition efficiency of glycitin family in defatted soybean (30° C., heat treatment of enzyme yes, reaction time 6 h): 45.1% | Decomposition efficiency of glycitin family in concentrated soybean protein [1]: 0.4% | Decomposition efficiency of glycitin family in roasted soy flour [1]: not detected | Decomposition efficiency of glycitin family in soymilk [1]: 48.0% | Decomposition efficiency of glycitin family in concentrated soybean protein [2]: 0.5% | Decomposition efficiency of glycitin family in roasted soy flour [2]: not detected | Decomposition efficiency of glycitin family in soymilk [2]: 51.0% | Decomposition efficiency of glycitin family in concentrated soybean protein [3]: 0.5% | Decomposition efficiency of glycitin family in roasted soy flour [3]: not detected | Decomposition efficiency of glycitin family in soymilk [3]: 39.6% | Decomposition efficiency of glycitin family in concentrated soybean protein [4]: 0.5% | Decomposition efficiency of glycitin family in roasted soy flour [4]: not detected | Decomposition efficiency of glycitin family in soymilk [4]: 28.4% | Decomposition efficiency of glycitin family in concentrated soybean protein [5]: 0.4% | Decomposition efficiency of glycitin family in roasted soy flour [5]: not detected | Decomposition efficiency of glycitin family in soymilk [5]: 47.7% | Decomposition efficiency of glycitin family in defatted soybean (45° C., heat treatment of enzyme no, reaction time 0 h): 65.2% | Decomposition efficiency of glycitin family in defatted soybean (45° C., heat treatment of enzyme no, reaction time 1 h): 44.3% | Decomposition efficiency of glycitin family in defatted soybean (45° C., heat treatment of enzyme no, reaction time 3 h): 44.8% | Decomposition efficiency of glycitin family in defatted soybean (45° C., heat treatment of enzyme no, reaction time 6 h): 41.0% | Decomposition efficiency of glycitin family in defatted soybean (45° C., heat treatment of enzyme yes, reaction time 6 h): 44.2% | Decomposition efficiency of glycitin family in concentrated soybean protein [6]: 0.4% | Decomposition efficiency of glycitin family in roasted soy flour [6]: not detected | Decomposition efficiency of glycitin family in soymilk [6]: 49.1% | Decomposition efficiency of glycitin family in concentrated soybean protein [7]: 0.6% | Decomposition efficiency of glycitin family in roasted soy flour [7]: not detected | Decomposition efficiency of glycitin family in soymilk [7]: 46.2% | Decomposition efficiency of glycitin family in concentrated soybean protein [8]: 0.6% | Decomposition efficiency of glycitin family in roasted soy flour [8]: not detected | Decomposition efficiency of glycitin family in soymilk [8]: 29.9% | Decomposition efficiency of glycitin family in concentrated soybean protein [9]: 0.6% | Decomposition efficiency of glycitin family in roasted soy flour [9]: not detected | Decomposition efficiency of glycitin family in soymilk [9]: 15.3% | Decomposition efficiency of glycitin family in concentrated soybean protein [10]: 0.5% | Decomposition efficiency of glycitin family in roasted soy flour [10]: not detected | Decomposition efficiency of glycitin family in soymilk [10]: 47.2% | Decomposition efficiency of glycitin family in defatted soybean (55° C., heat treatment of enzyme no, reaction time 0 h): 61.3% | Decomposition efficiency of glycitin family in defatted soybean (55° C., heat treatment of enzyme no, reaction time 1 h): 44.8% | Decomposition efficiency of glycitin family in defatted soybean (55° C., heat treatment of enzyme no, reaction time 3 h): 42.6% | Decomposition efficiency of glycitin family in defatted soybean (55° C., heat treatment of enzyme no, reaction time 6 h): 42.7% | Decomposition efficiency of glycitin family in defatted soybean (55° C., heat treatment of enzyme yes, reaction time 6 h): 45.5% | Decomposition efficiency of glycitin family in concentrated soybean protein [11]: 0.4% | Decomposition efficiency of glycitin family in roasted soy flour [11]: not detected | Decomposition efficiency of glycitin family in soymilk [11]: 44.6% | Decomposition efficiency of glycitin family in concentrated soybean protein [12]: 0.5% | Decomposition efficiency of glycitin family in roasted soy flour [12]: not detected | Decomposition efficiency of glycitin family in soymilk [12]: 39.1% | Decomposition efficiency of glycitin family in concentrated soybean protein [13]: 0.5% | Decomposition efficiency of glycitin family in roasted soy flour [13]: not detected | Decomposition efficiency of glycitin family in soymilk [13]: 27.7% | Decomposition efficiency of glycitin family in concentrated soybean protein [14]: 0.5% | Decomposition efficiency of glycitin family in roasted soy flour [14]: not detected | Decomposition efficiency of glycitin family in soymilk [14]: 16.5% | Decomposition efficiency of glycitin family in concentrated soybean protein [15]: 0.4% | Decomposition efficiency of glycitin family in roasted soy flour [15]: not detected | Decomposition efficiency of glycitin family in soymilk [15]: 39.9% | Decomposition efficiency of glycitin family in defatted soybean (65° C., heat treatment of enzyme no, reaction time 0 h): 65.2% | Decomposition efficiency of glycitin family in defatted soybean (65° C., heat treatment of enzyme no, reaction time 1 h): 45.3% | Decomposition efficiency of glycitin family in defatted soybean (65° C., heat treatment of enzyme no, reaction time 3 h): 42.1% | Decomposition efficiency of glycitin family in defatted soybean (65° C., heat treatment of enzyme no, reaction time 6 h): 40.0% | Decomposition efficiency of glycitin family in defatted soybean (65° C., heat treatment of enzyme yes, reaction time 6 h): 48.8% | Decomposition efficiency of glycitin family in concentrated soybean protein [16]: 0.4% | Decomposition efficiency of glycitin family in roasted soy flour [16]: not detected | Decomposition efficiency of glycitin family in soymilk [16]: 48.0% | Decomposition efficiency of glycitin family in concentrated soybean protein [17]: 0.5% | Decomposition efficiency of glycitin family in roasted soy flour [17]: not detected | Decomposition efficiency of glycitin family in soymilk [17]: 42.4% | Decomposition efficiency of glycitin family in concentrated soybean protein [18]: 0.5% | Decomposition efficiency of glycitin family in roasted soy flour [18]: not detected | Decomposition efficiency of glycitin family in soymilk [18]: 34.3% | Decomposition efficiency of glycitin family in concentrated soybean protein [19]: 0.4% | Decomposition efficiency of glycitin family in roasted soy flour [19]: not detected | Decomposition efficiency of glycitin family in soymilk [19]: 25.5% | Decomposition efficiency of glycitin family in concentrated soybean protein [20]: 0.4% | Decomposition efficiency of glycitin family in roasted soy flour [20]: not detected | Decomposition efficiency of glycitin family in soymilk [20]: 36.0% | Decomposition efficiency of glycitin family in defatted soybean (80° C., heat treatment of enzyme no, reaction time 0 h): 65.2% | Decomposition efficiency of glycitin family in defatted soybean (80° C., heat treatment of enzyme no, reaction time 1 h): 46.1% | Decomposition efficiency of glycitin family in defatted soybean (80° C., heat treatment of enzyme no, reaction time 3 h): 45.0% | Decomposition efficiency of glycitin family in defatted soybean (80° C., heat treatment of enzyme no, reaction time 6 h): 40.3% | Decomposition efficiency of glycitin family in defatted soybean (80° C., heat treatment of enzyme yes, reaction time 6 h): 48.1% | Decomposition efficiency of glycitin family in concentrated soybean protein [21]: 0.4% | Decomposition efficiency of glycitin family in roasted soy flour [21]: not detected | Decomposition efficiency of glycitin family in soymilk [21]: 49.1% | Decomposition efficiency of glycitin family in concentrated soybean protein [22]: 0.4% | Decomposition efficiency of glycitin family in roasted soy flour [22]: not detected | Decomposition efficiency of glycitin family in soymilk [22]: 43.6% | Decomposition efficiency of glycitin family in concentrated soybean protein [23]: 0.4% | Decomposition efficiency of glycitin family in roasted soy flour [23]: not detected | Decomposition efficiency of glycitin family in soymilk [23]: 32.6% | Decomposition efficiency of glycitin family in concentrated soybean protein [24]: 0.3% | Decomposition efficiency of glycitin family in roasted soy flour [24]: not detected | Decomposition efficiency of glycitin family in soymilk [24]: 21.3% | Decomposition efficiency of glycitin family in concentrated soybean protein [25]: 0.3% | Decomposition efficiency of glycitin family in roasted soy flour [25]: not detected | Decomposition efficiency of glycitin family in soymilk [25]: 19.3%
Compound: COc1cc2c(=O)c(-c3ccc(O)cc3)coc2cc1O[C@@H]1O[C@H](COC(=O)CC(=O)O)[C@@H](O)[C@H](O)[C@H]1O [malonylglycitin, 6″-O-malonylglycitin]
